Reference: ChEMBL document CHEMBL4402594, “Interrogating the Lactate Dehydrogenase Tetramerization Site Using (Stapled) Peptides” (J Med Chem, 2020)
pEC50, pKd: −log10 of the molar value. Active and inactive are the calls of the source. The calls are words filed in the database; no cut-off is given here. Peptide text beside a SMILES is read from it.

Experiments:
[1] = target: T1, L-lactate dehydrogenase A chain (Homo sapiens, UniProt P00338); test: Binding affinity to human N-terminal His6-tagged LDH-5 expressed in Escherichia coli Rosetta (DE3) assessed as induction of thermal destabilization by measuring melting temperature at 400 uM by nano differential scanning fluorimetry analysis (reference value: 66 degree C)
[2] = target: T2, L-lactate dehydrogenase B chain (Homo sapiens, UniProt P07195); test: Binding affinity to recombinant full length human His-tagged LDH-1 (1 to 322 residues) expressed in Escherichia coli assessed as induction of thermal destabilization by measuring change in melting temperature at 400 uM by nano differential scanning fluorimetry analysis
Target sequence in this assay (P07195 2-334 limits assumed): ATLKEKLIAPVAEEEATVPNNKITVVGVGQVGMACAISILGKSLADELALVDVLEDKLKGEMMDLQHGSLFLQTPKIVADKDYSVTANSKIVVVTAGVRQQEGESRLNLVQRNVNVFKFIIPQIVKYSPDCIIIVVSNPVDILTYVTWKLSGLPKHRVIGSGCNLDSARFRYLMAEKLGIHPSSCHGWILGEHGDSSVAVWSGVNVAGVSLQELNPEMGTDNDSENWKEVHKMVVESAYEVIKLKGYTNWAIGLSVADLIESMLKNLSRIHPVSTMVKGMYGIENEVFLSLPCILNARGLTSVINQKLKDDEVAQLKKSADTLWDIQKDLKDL

[3] = target: T1, L-lactate dehydrogenase A chain; test: Binding affinity to truncated human N-terminal His6-tagged LDH-5 expressed in Escherichia coli Rosetta (DE3) assessed as induction of thermal destabilization by measuring melting temperature at 400 uM by nano differential scanning fluorimetry analysis
[4] = target: T1, L-lactate dehydrogenase A chain; test: Binding affinity to human N-terminal His6-tagged human LDH-5 expressed in Escherichia coli Rosetta (DE3) assessed as induction of protein disruption by interacting with tetramerization site by Red-NHS fluorescence dye based microscale thermophoresis analysis
[5] = target: T2, L-lactate dehydrogenase B chain; test: Binding affinity to recombinant full length human His-tagged LDH-1 (1 to 322 residues) expressed in Escherichia coli assessed as induction of thermal destabilization at 400 uM by nano differential scanning fluorimetry analysis
Target sequence in this assay (P07195 2-334 limits assumed): as above

[6] = target: L-lactate dehydrogenase A chain (Oryctolagus cuniculus) (UniProt P13491); test: Binding affinity to rabbit LDH-5 assessed as acid-induced dimerization by measuring fluorescence recovery at 0.75 uM to 400 uM pH 7.6 by nano differential scanning fluorimetry analysis
[7] = target: T1, L-lactate dehydrogenase A chain; test: Binding affinity to human N-terminal His6-tagged LDH-5 expressed in Escherichia coli Rosetta (DE3) assessed as induction of thermal destabilization at 400 uM by nano differential scanning fluorimetry analysis
[8] = target: T1, L-lactate dehydrogenase A chain; test: Binding affinity to human N-terminal His6-tagged LDH-5 expressed in Escherichia coli Rosetta (DE3) assessed as induction of thermal destabilization by measuring change in melting temperature at 400 uM by nano differential scanning fluorimetry analysis
[9] = target: T1, L-lactate dehydrogenase A chain; test: Binding affinity to truncated N-terminal His6-tagged human LDH-5 expressed in Escherichia coli Rosetta (DE3) assessed as induction of protein disruption by interacting with tetramerization site by Red-NHS fluorescence dye based microscale thermophoresis analysis
[10] = target: T2, L-lactate dehydrogenase B chain; test: Binding affinity to full length human N-terminal His6-tagged LDH-H expressed in Escherichia coli Rosetta (DE3) assessed as saturation transfer at C-terminal residues at 800 uM phosphate buffer at pH 7 by 2D NMR-TOCSY analysis
Target sequence in this assay (P07195 2-334 limits assumed): as above

[11] = target: T2, L-lactate dehydrogenase B chain; test: Binding affinity to full length human N-terminal His6-tagged LDH-H expressed in Escherichia coli Rosetta (DE3) measured after 5 mins by Red-NHS fluorescent dye based microscale thermophoresis analysis
Target sequence in this assay (P07195 whole entry, the tested form may be a part): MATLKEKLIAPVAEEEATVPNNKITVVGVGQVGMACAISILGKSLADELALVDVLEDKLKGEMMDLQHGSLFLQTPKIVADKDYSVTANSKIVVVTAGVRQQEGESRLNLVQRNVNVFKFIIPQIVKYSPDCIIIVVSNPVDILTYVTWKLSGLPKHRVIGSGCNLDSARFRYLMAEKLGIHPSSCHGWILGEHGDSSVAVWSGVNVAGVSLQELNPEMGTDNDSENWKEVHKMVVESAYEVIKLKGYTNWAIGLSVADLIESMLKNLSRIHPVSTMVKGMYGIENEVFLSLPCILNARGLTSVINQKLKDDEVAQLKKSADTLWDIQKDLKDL

[12] = target: T2, L-lactate dehydrogenase B chain; test: Binding affinity to recombinant full length human His-tagged LDH-1 (1 to 322 residues) expressed in Escherichia coli by WaterLOGSY NMR analysis
Target sequence in this assay (P07195 whole entry, the tested form may be a part): as above

[13] = target: T2, L-lactate dehydrogenase B chain; test: Binding affinity to full length human N-terminal His6-tagged LDH-H expressed in Escherichia coli Rosetta (DE3) assessed as saturation transfer at N-terminal residues at 800 uM phosphate buffer at pH 7 by 2D NMR-TOCSY analysis
Target sequence in this assay (P07195 2-334 limits assumed): as the sequence (P07195 2-334 limits assumed) above

[14] = target: T2, L-lactate dehydrogenase B chain; test: Inhibition of recombinant full length human His-tagged LDH-1 (1 to 322 residues) expressed in Escherichia coli at 800 uM by WaterLOGSY NMR analysis
Target sequence in this assay (P07195 whole entry, the tested form may be a part): as the sequence (P07195 whole entry, the tested form may be a part) above

[15] = target: T2, L-lactate dehydrogenase B chain; test: Binding affinity to full length human N-terminal His6-tagged LDH-H expressed in Escherichia coli Rosetta (DE3) assessed as saturation transfer stemming at 800 uM in sodium phosphate buffer at pH 7.6 by WaterLOGSY NMR analysis
Target sequence in this assay (P07195 2-334 limits assumed): as the sequence (P07195 2-334 limits assumed) above

[16] = target: T2, L-lactate dehydrogenase B chain; test: Binding affinity to recombinant full length human His-tagged LDH-1 (1 to 322 residues) expressed in Escherichia coli at 800 uM by WaterLOGSY NMR analysis
Target sequence in this assay (P07195 whole entry, the tested form may be a part): as the sequence (P07195 whole entry, the tested form may be a part) above

For `CC[C@H](C)[C@H](NC(=O)[C@H](CC(C)C)NC(=O)[C@H](CCCCN)NC(=O)[C@@H]1CSc2c(F)c(F)c(c(F)c2F)SC[C@H](N)C(=O)N[C@@H]([C@@H](C)O)C(=O)N[C@@H](CC(C)C)C(=O)N[C@@H](CCCCN)C(=O)N1)C(N)=O` (HELM PEPTIDE1{C.T.L.K.C.K.L.I.[am]}|CHEM1{[Fc1c(F)c([*:2])c(F)c(F)c1[*:1]]}$PEPTIDE1,CHEM1,1:R3-1:R1|PEPTIDE1,CHEM1,5:R3-1:R2$$$V2.0), the Tm [1] was 61 °C, the ΔTm [2] was -1.5 °C and the Activity [3] was “inactive”. The pEC50 [4] was 3.76, the Activity [5] was “Active” and the Activity [6] was “Active”. For the same compound, the Activity [7] was “Active”, the ΔTm [8] was -5 °C and the Activity [9] was “inactive”.
With H-ATLKEKLIAPVAEEEATVP-NH2 the Activity [10] was “Active”, the pKd [11] was 2.75 and the Activity [12] was “Not Active”. The Activity [13] was “Active”, the “inhibition (INH)” value [14] was “Not Active” and the Activity [15] was “Active”. The Activity [16] was “Not Active”.
